Assay results published in ChEMBL document CHEMBL1201862, “PubChem BioAssay data set” (2004).
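Compound exposure: 48 hours, 5 concentrations, 96-well plates. GI50 = concentration required for 50% inhibition of growth.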 The source made the active and inactive calls. Cut-off read from the data, not from the text of the source: active = GI50 up to about 1.1 µM and inactive = higher.

Key:
Assay in all cases: growth of human tumour cells (NCI), 48 h
M14 = system: M14
NCI-H23 = system: NCI-H23
RXF 393 = system: RXF 393
HOP-92 = system: HOP-92
ACHN = system: ACHN
CAKI-1 = system: CAKI-1
UACC-257 = system: UACC-257
HCT-116 = system: HCT-116
A549 = system: A549
SK-MEL-28 = system: SK-MEL-28
OVCAR-3 = system: OVCAR-3
HCC 2998 = system: HCC 2998
SW-620 = system: SW-620
SNB-75 = system: SNB-75
MOLT-4 = system: MOLT-4

SMILES	GI50 (M14)	GI50 (NCI-H23)	GI50 (RXF 393)	GI50 (HOP-92)	GI50 (ACHN)	GI50 (CAKI-1)	GI50 (UACC-257)	GI50 (HCT-116)	GI50 (A549)	GI50 (SK-MEL-28)	GI50 (OVCAR-3)	GI50 (HCC 2998)	GI50 (SW-620)	GI50 (SNB-75)	GI50 (MOLT-4)
CC1=C[C@H]2C[C@@]3(C)O[C@@H]([C@]4(C)CC[C@H]([C@@H](C)C(=O)O)OO4)CC3C(C)(C)[C@H]2CC1 (some centres not stated)	1.44 µM (inactive)	1.91 µM (inactive)	1.25 µM (inactive)	0.078 µM (active)	1.57 µM (inactive)	1.49 µM (inactive)	1.68 µM (inactive)	2.16 µM (inactive)	1.88 µM (inactive)	1.56 µM (inactive)	1.81 µM (inactive)	1.04 µM (active)	0.259 µM (active)	1.08 µM (active)	–
Cn1c2c(c3ccccc31)C1C(=O)N(c3ccccc3)C(=O)C1CC2 (configuration not stated)	–	> 303 µM (inactive)	> 303 µM (inactive)	> 303 µM (inactive)	> 303 µM (inactive)	> 303 µM (inactive)	> 303 µM (inactive)	294 µM (inactive)	> 303 µM (inactive)	> 303 µM (inactive)	123 µM (inactive)	> 303 µM (inactive)	> 303 µM (inactive)	–	> 303 µM (inactive)
COC(=O)CC(=O)NCC1=CCC(=O)CC1	> 100 µM (inactive)	> 100 µM (inactive)	> 100 µM (inactive)	> 100 µM (inactive)	–	> 100 µM (inactive)	> 100 µM (inactive)	> 100 µM (inactive)	> 100 µM (inactive)	> 100 µM (inactive)	> 100 µM (inactive)	> 100 µM (inactive)	> 100 µM (inactive)	> 100 µM (inactive)	> 100 µM (inactive)
O=C(COc1ccc(Cl)cc1)N1N=C(c2ccc(Cl)cc2)CC1(O)c1ccccc1 (configuration not stated)	18.1 µM (inactive)	13.1 µM (inactive)	–	21.5 µM (inactive)	9.04 µM (inactive)	20.9 µM (inactive)	15.8 µM (inactive)	12.6 µM (inactive)	14.3 µM (inactive)	18.2 µM (inactive)	16.3 µM (inactive)	> 37.2 µM (inactive)	21.2 µM (inactive)	29.9 µM (inactive)	4.95 µM (inactive)
CCCCCCCCCCCCCC(=O)OCC1OC(=O)C(O)C1O (configuration not stated)	> 100 µM (inactive)	> 100 µM (inactive)	–	> 100 µM (inactive)	> 100 µM (inactive)	> 100 µM (inactive)	> 100 µM (inactive)	> 100 µM (inactive)	> 100 µM (inactive)	> 100 µM (inactive)	> 100 µM (inactive)	> 100 µM (inactive)	> 100 µM (inactive)	> 100 µM (inactive)	> 100 µM (inactive)
COc1ccc(C2C(Cl)C(=O)N2NC(=O)Cc2ccccc2)cc1 (configuration not stated)	> 100 µM (inactive)	> 100 µM (inactive)	> 100 µM (inactive)	–	> 100 µM (inactive)	> 100 µM (inactive)	> 100 µM (inactive)	> 100 µM (inactive)	> 100 µM (inactive)	> 100 µM (inactive)	> 100 µM (inactive)	> 100 µM (inactive)	> 100 µM (inactive)	> 100 µM (inactive)	> 100 µM (inactive)
COc1cc2c3c(c1OC)-c1c(ccc4c1OCO4)CC3(C#N)N(C(=O)c1ccccc1)CC2 (configuration not stated)	> 100 µM (inactive)	52.8 µM (inactive)	36.1 µM (inactive)	26.4 µM (inactive)	–	36.6 µM (inactive)	57.7 µM (inactive)	42.2 µM (inactive)	64.3 µM (inactive)	–	45.3 µM (inactive)	–	> 100 µM (inactive)	21.2 µM (inactive)	> 100 µM (inactive)
NC(=S)N/N=C(/CC(=O)c1ccc([N+](=O)[O-])cc1)C(=O)Nc1ncc([N+](=O)[O-])s1	> 100 µM (inactive)	> 100 µM (inactive)	> 100 µM (inactive)	> 100 µM (inactive)	> 100 µM (inactive)	–	> 100 µM (inactive)	> 100 µM (inactive)	> 100 µM (inactive)	> 100 µM (inactive)	> 100 µM (inactive)	> 100 µM (inactive)	> 100 µM (inactive)	> 100 µM (inactive)	30.7 µM (inactive)
C[N+]1=c2c3cccc4cccc(c(=O)n2CC1)c43	14.9 µM (inactive)	17.6 µM (inactive)	11.4 µM (inactive)	24.7 µM (inactive)	12.5 µM (inactive)	23.1 µM (inactive)	16.1 µM (inactive)	4.68 µM (inactive)	22.4 µM (inactive)	15.8 µM (inactive)	25.7 µM (inactive)	–	11 µM (inactive)	21.8 µM (inactive)	3.37 µM (inactive)
O=C(O)Cc1cc(=O)[nH]c2c1C(=O)CCC2	> 100 µM (inactive)	> 100 µM (inactive)	> 100 µM (inactive)	> 100 µM (inactive)	> 100 µM (inactive)	–	> 100 µM (inactive)	–	–	> 100 µM (inactive)	> 100 µM (inactive)	> 100 µM (inactive)	> 100 µM (inactive)	–	> 100 µM (inactive)
N#Cc1ccc(C2OCC3CC=CCC3CO2)cc1 (configuration not stated)	52.2 µM (inactive)	36.3 µM (inactive)	54.3 µM (inactive)	–	93.5 µM (inactive)	> 100 µM (inactive)	42.7 µM (inactive)	65.5 µM (inactive)	70 µM (inactive)	78.5 µM (inactive)	91 µM (inactive)	59.4 µM (inactive)	> 100 µM (inactive)	64.9 µM (inactive)	2.97 µM (inactive)
C[P+]1(Cc2ccccc2)CCCC1	> 100 µM (inactive)	> 100 µM (inactive)	> 100 µM (inactive)	–	> 100 µM (inactive)	–	> 100 µM (inactive)	> 100 µM (inactive)	> 100 µM (inactive)	> 100 µM (inactive)	> 100 µM (inactive)	71.1 µM (inactive)	> 100 µM (inactive)	> 100 µM (inactive)	> 100 µM (inactive)
COc1ccc(/C=C(\Cl)c2ccc(OC)cc2)cc1	> 100 µM (inactive)	> 100 µM (inactive)	–	> 100 µM (inactive)	> 100 µM (inactive)	> 100 µM (inactive)	> 100 µM (inactive)	> 100 µM (inactive)	> 100 µM (inactive)	> 100 µM (inactive)	> 100 µM (inactive)	> 100 µM (inactive)	> 100 µM (inactive)	> 100 µM (inactive)	> 100 µM (inactive)
CC(=O)C1C(=O)NC(=O)C1=O (configuration not stated)	> 100 µM (inactive)	> 100 µM (inactive)	> 100 µM (inactive)	> 100 µM (inactive)	> 100 µM (inactive)	> 100 µM (inactive)	> 100 µM (inactive)	> 100 µM (inactive)	–	> 100 µM (inactive)	> 100 µM (inactive)	> 100 µM (inactive)	29.2 µM (inactive)	> 100 µM (inactive)	–
COc1cc(OC)cc(C(=O)Cc2c(C(=O)c3ccccc3)c3ccccc3n2C(=O)c2ccccc2)c1	32.2 µM (inactive)	14.4 µM (inactive)	43.6 µM (inactive)	3.78 µM (inactive)	33 µM (inactive)	50.5 µM (inactive)	–	23.2 µM (inactive)	25.3 µM (inactive)	34.4 µM (inactive)	21.3 µM (inactive)	43.4 µM (inactive)	37.5 µM (inactive)	7.46 µM (inactive)	9.4 µM (inactive)
